Results from patent US12503475B2 (Centessa Pharmaceuticals (UK) Limited, priority 2020, dated 2025).
Where two headings read alike, the source gives them in different places.

Target: T1, human orexin type 2 receptor (hOX2R) (Homo sapiens, UniProt O43614)
T1 construct: expressed in transfected cells
T1 sequence (O43614 1-444): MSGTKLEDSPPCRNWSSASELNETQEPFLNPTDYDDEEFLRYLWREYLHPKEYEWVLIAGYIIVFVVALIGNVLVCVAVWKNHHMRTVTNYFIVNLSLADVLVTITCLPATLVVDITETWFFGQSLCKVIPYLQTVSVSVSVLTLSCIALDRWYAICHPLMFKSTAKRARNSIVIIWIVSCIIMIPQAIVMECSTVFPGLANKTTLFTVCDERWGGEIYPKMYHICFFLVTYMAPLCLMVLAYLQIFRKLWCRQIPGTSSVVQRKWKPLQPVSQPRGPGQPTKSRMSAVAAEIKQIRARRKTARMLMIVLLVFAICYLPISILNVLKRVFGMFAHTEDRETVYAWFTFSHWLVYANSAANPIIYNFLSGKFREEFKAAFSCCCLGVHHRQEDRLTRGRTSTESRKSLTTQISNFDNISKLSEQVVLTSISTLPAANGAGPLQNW
Test: Measurement of orexin type 2 receptor agonist activity (FLIPR calcium fluorescence)
Type: cell-based
Settings: for EC50: read-out: hOx2 pEC50 (converted); for Emax: CHO, read-out: hOx2 Emax (%)
Summary of the method: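 Agonism was read as fluorescence in cells stably expressing human OX2R. E. is the response at 10 μM relative to orexin A as full agonist (100%).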

[1] = CHO cells expressing hOX2R, FLIPR calcium fluorescence

Row | EC50 [1] [nM] | Emax [1] [%] | Molecule | Emax [%] | hOx2 Emax (%) [1] | hOx2 pEC50 [1]
1 | 0.0794 to 1 | 90 to 100 | CN(C)S(=O)(=O)N[C@@H]1[C@H](Cc2cccc(-c3ccccc3)c2F)N(C(=O)C2(O)CCC2)CC12CC2 [Compound 120, N-((6S,7S)-6-((2-fluoro-[1,1′-biphenyl]-3-yl)methyl)-5-(1-hydroxycyclobutane-1-carbonyl)-5-azaspiro[2.4]heptan-7-yl)-N,N-dimethylsulfuric diamide] |  |  | 
2 | 1 to 10 | 90 to 100 | CS(=O)(=O)N[C@@H]1[C@H](Cc2cccc(-c3ccccc3)c2F)N(C(=O)[C@H]2CCO2)CC12CC2 [Compound 21, N-((6S,7S)-6-((2-fluoro-[1,1′-biphenyl]-3-yl)methyl)-5-((R)-oxetane-2-carbonyl)-5-azaspiro[2.4]heptan-7-yl)methanesulfonamide] |  |  | 
3 | 10 to 100 | 70 to 80 | CCCNC(=O)N1CC2(CC2)[C@H](NS(C)(=O)=O)[C@@H]1Cc1cccc(-c2ccccc2)c1OC [Compound 342, (6S,7S)-6-((2-methoxy-[1,1′-biphenyl]-3-yl)methyl)-7-(methylsulfonamido)-N-propyl-5-azaspiro[2.4]heptane-5-carboxamide] |  |  | 
4 | 0.0794 to 1 | 90 to 100 | C[C@H](F)CNC(=O)N1CC2(CC2)[C@H](NS(C)(=O)=O)[C@@H]1Cc1cccc(-c2ccccc2)c1F [Compound 84, (6S,7S)-6-((2-fluoro-[1,1′-biphenyl]-3-yl)methyl)-N-((S)-2-fluoropropyl)-7-(methylsulfonamido)-5-azaspiro[2.4]heptane-5-carboxamide] |  |  | 
5 | 10 to 100 | 80 to 90 | CS(=O)(=O)N[C@@H]1[C@H](Cc2cccc(-c3ccccc3)c2F)N(C(=O)NC2CC(F)C2)CC12CC2 (stereo partly drawn) [Compound 315, (6S,7S)-6-((2-fluoro-[1,1′-biphenyl]-3-yl)methyl)-N-(3-fluorocyclobutyl)-7-(methylsulfonamido)-5-azaspiro[2.4]heptane-5-carboxamide] |  |  | 
6 | 0.0794 to 1 | 90 to 100 | CCS(=O)(=O)N[C@@H]1[C@H](Cc2cccc(-c3cc(F)cc(F)c3)c2F)N(C(=O)[C@H]2CCO2)CC12CC2 [Compound 185, N-((6S,7S)-5-((R)-oxetane-2-carbonyl)-6-((2,3′,5′-trifluoro-[, 1′-biphenyl]-3-yl)methyl)-5-azaspiro[2.4]heptan-7-yl)ethanesulfonamide] |  |  | 
7 | 0.0794 to 1 | 90 to 100 | CC(C)S(=O)(=O)N[C@@H]1[C@H](Cc2cccc(-c3cc(F)cc(F)c3)c2F)N(C(=O)[C@H]2CCO2)CC12CC2 [Compound 222, N-((6S,7S)-5-((R)-oxetane-2-carbonyl)-6-((2,3′,5′-trifluoro-[1,1′-biphenyl]-3-yl)methyl)-5-azaspiro[2.4]heptan-7-yl)propane-2-sulfonamide] |  |  | 
8 | 10 to 100 | 90 to 100 | CS(=O)(=O)N[C@@H]1[C@H](Cc2cccc(-c3ccccc3)c2F)N(C(=O)[C@@H]2CCO2)CC12CC2 [Compound 20, N-((6S,7S)-6-((2-fluoro-[1,1′-biphenyl]-3-yl)methyl)-5-((S)-oxetane-2-carbonyl)-5-azaspiro[2.4]heptan-7-yl)methanesulfonamide] |  |  | 
9 | 1 to 10 | 90 to 100 | O=C(NCC1COC1)N1CC2(CC2)[C@H](NS(=O)(=O)CF)[C@@H]1Cc1cccc(-c2ccccc2)c1F [Compound 366, (6S,7S)-6-((2-fluoro-[1,1′-biphenyl]-3-yl)methyl)-7-((fluoromethyl)sulfonamido)-N-(oxetan-3-ylmethyl)-5-azaspiro[2.4]heptane-5-carboxamide] |  |  | 
10 | 1 to 10 | 90 to 100 | CN(C)S(=O)(=O)N[C@@H]1[C@H](Cc2cc(F)cc(-c3ccccc3)c2F)N(C(=O)C2CCO2)CC12CC2 (stereo partly drawn) [Compound 347, N-((6S,7S)-6-((2,5-difluoro-[1,1′-biphenyl]-3-yl)methyl)-5-((R)-oxetane-2-carbonyl)-5-azaspiro[2.4]heptan-7-yl)-N,N-dimethylsulfuric diamide] |  |  | 
11 | 10 to 100 | 90 to 100 | CS(=O)(=O)N[C@H]1[C@@H](Cc2cccc(-c3cccc(F)c3)c2F)N(C(=O)N2CCC2)CC12CC2 [Compound 26, N-((6R,7R)-5-(azetidine-1-carbonyl)-6-((2,3′-difluoro-[1,1′-biphenyl]-3-yl)methyl)-5-azaspiro[2.4]heptan-7-yl)methanesulfonamide] |  |  | 
12 | 1 to 10 | 90 to 100 | CN(C)S(=O)(=O)NC1C(Cc2cccc(-c3ccccc3)c2F)N(C(=O)C2CCC2)CC12CC2 (racemic) [Compound 92, N-(5-(cyclobutanecarbonyl)-6-((2-fluoro-[1,1′-biphenyl]-3-yl)methyl)-5-azaspiro[2.4]heptan-7-yl)-N,N-dimethylsulfuric diamide] |  |  | 
13 | 1 to 10 | 90 to 100 | O=C([C@H]1CCO1)N1CC2(CC2)[C@H](NS(=O)(=O)C(F)F)[C@@H]1Cc1cccc(-c2cccc(F)c2F)c1F [Compound 172] |  |  | 
14 | 0.0794 to 1 | 90 to 100 | C[C@H](F)C(=O)N1CC2(CC2)[C@H](NS(=O)(=O)CF)[C@@H]1Cc1cccc(-c2cc(F)cc(F)c2)c1F [Compound 232, 1-fluoro-N-((6S,7S)-5-((S)-2-fluoropropanoyl)-6-((2,3′,5′-trifluoro-[1,1′-biphenyl]-3-yl)methyl)-5-azaspiro[2.4]heptan-7-yl)methanesulfonamide] |  |  | 
15 | 1 to 10 | 90 to 100 | CS(=O)(=O)N[C@@H]1[C@H](Cc2cccc(-c3ccccc3)c2F)N(C(=O)NC[C@H]2CCO2)CC12CC2 [Compound 331, (6S,7S)-6-((2-fluoro-[1,1′-biphenyl]-3-yl)methyl)-7-(methylsulfonamido)-N-(((R)-oxetan-2-yl)methyl)-5-azaspiro[2.4]heptane-5-carboxamide] |  |  | 
16 | 1 to 10 | 90 to 100 | CCS(=O)(=O)N[C@@H]1[C@H](Cc2cccc(-c3ccccc3)c2)N(C(=O)[C@H](O)C(F)(F)F)CC12CC2 [Compound 58, N-((6S,7S)-6-([1,1′-biphenyl]-3-ylmethyl)-5-((S)-3,3,3-trifluoro-2-hydroxypropanoyl)-5-azaspiro[2.4]heptan-7-yl)ethanesulfonamide] |  |  | 
17 | 1 to 10 | 90 to 100 | O=C([C@H]1CCO1)N1CC2(CC2)[C@H](NS(=O)(=O)CF)[C@@H]1Cc1cc(F)cc(-c2cc(F)ccc2F)c1F [Compound 218, 1-fluoro-N-((6S,7S)-5-((R)-oxetane-2-carbonyl)-6-((2,2′,5,5′-tetrafluoro-[1,1′-biphenyl]-3-yl)methyl)-5-azaspiro[2.4]heptan-7-yl)methanesulfonamide] |  |  | 
18 | 0.0794 to 1 | 90 to 100 | O=C([C@@H](O)C1CC1)N1CC2(CC2)[C@H](NS(=O)(=O)C(F)F)[C@@H]1Cc1cccc(-c2cc(F)cc(F)c2)c1F [Compound 377, N-((6S,7S)-5-((S)-2-cyclopropyl-2-hydroxyacetyl)-6-((2,3′,5′-trifluoro-[1,1′-biphenyl]-3-yl)methyl)-5-azaspiro[2.4]heptan-7-yl)-1,1-difluoromethanesulfonamide] |  |  | 
19 |  |  | (6S,7S)-6-(2,5-difluoro-[1,1′- biphenyl]-3-yl)methyl)-7- ((difluoromethyl)sulfonamido)- N-((S)-1-fluoroethyl)-5- azaspiro[2.4]heptane-5- carboxamide [Compound 216] |  | A (Emax ranging between 90 and 100) | **** (pEC50 ranging between 8.0 and 9.0)
20 | 1 to 10 | 90 to 100 | O=C([C@@H](O)C1CC1)N1CC2(CC2)[C@H](NS(=O)(=O)C(F)F)[C@@H]1Cc1cc(F)cc(-c2cc(F)cc(F)c2)c1F [Compound 384, N-((6S,7S)-5-((S)-2-cyclopropyl-2-hydroxyacetyl)-6-((2,3′,5,5′-tetrafluoro-[1,1′-biphenyl]-3-yl)methyl)-5-azaspiro[2.4]heptan-7-yl)-1,1-difluoromethanesulfonamide] |  |  | 
21 | 1 to 10 | 90 to 100 | CC(C)(O)C(=O)N1CC2(CC2)[C@H](NS(=O)(=O)C(F)F)[C@@H]1Cc1cccc(-c2cc(F)cc(F)c2)c1F [Compound 195, 1,1-difluoro-N-((6S,7S)-5-(2-hydroxy-2-methylpropanoyl)-6-((2,3′,5′-trifluoro-[1,1′-biphenyl]-3-yl)methyl)-5-azaspiro[2.4]heptan-7-yl)methanesulfonamide] |  |  | 
22 | 100 to 1000 | 80 to 90 | CC(C)(F)C(=O)N1CC2(CC2)C(NS(C)(=O)=O)C1Cc1cccc(-c2ccccc2)c1 (racemic) [Compound 13, N-(6-([1,1′-biphenyl]-3-ylmethyl)-5-(2-fluoro-2-methylpropanoyl)-5-azaspiro[2.4]heptan-7-yl)methanesulfonamide] |  |  | 
23 | 1 to 10 | 90 to 100 | O=C(NCC(F)(F)F)N1CC2(CC2)[C@H](NS(=O)(=O)C(F)F)[C@@H]1Cc1cc(F)cc(-c2ccccc2)c1F [Compound 383, (6S,7S)-6-((2,5-difluoro-[1,1′-biphenyl]-3-yl)methyl)-7-((difluoromethyl)sulfonamido)-N-(2,2,2-trifluoroethyl)-5-azaspiro[2.4]heptane-5-carboxamide] |  |  | 

Row | Molecule | EC50 [1] [nM] | Emax [1] [%] | Emax [%] | hOx2 Emax (%) [1] | hOx2 pEC50 [1]
24 | O=C([C@H](O)CF)N1CC2(CC2)[C@H](NS(=O)(=O)C(F)F)[C@@H]1Cc1cc(F)cc(-c2cc(F)cc(F)c2)c1F [Compound 221, 1,1-difluoro-N-((6S,7S)-5-((S)-3-fluoro-2-hydroxypropanoyl)-6-((2,3′,5,5′-tetrafluoro-[1,1′-biphenyl]-3-yl)methyl)-5-azaspiro[2.4]heptan-7-yl)methanesulfonamide] | 1 to 10 |  | 90 to 100 |  | 
